What was measured:
[1] = test system: Z138 mantle cell lymphoma tumour cell lines; assay: In vitro cytotoxicity, MTT assay; assay type: cell-based; details: Homo sapiens, Z-138, 96 h, Z138 cells exposed to the test compounds for 96 hours; cell viability vs DMSO treated cells
Experimental: The cytotoxicity studies were evaluated by MTT [3-(4,5-dimethylthiazol-2-yl)-2,5-diphenyltetrazolium bromide] assay and carried out on Z138 mantle cell lymphoma tumour cell lines. The cells are distributed onto microplates and exposed to the test compounds for 96 hours. MTT is then added for 4 hours and converted by NAD(P)H-dependent cellular oxidoreductase enzymes in formazan, which has a purple color. The viable cell number is proportional to the production of formuan salts and cell viability can be quantified by the absorbance of the solution at 540 nm with a speetrophotometer (Carmichael et al., Cancer Res. 1987, 47, 936-942).

[2] = target: T1, His-His-USP7 (aa208-560, |C315A|) (Homo sapiens, UniProt Q93009, C315A); assay: Evaluation of the inhibition of USP7 by the Fluorescence Intensity (FLINT) readings; assay type: biochemical; details: 0.25 nM His-His-USP7, compound incubated 60 minutes at 30° C., 500 nM Ubiquitin-Rhodamine-110 substrate; 50% reduction in kinetic rate
T1 construct: His-His-USP7 (aa208-560, |C315A|); His-His (N)
Procedure, shortened: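 0.25 nM His-His-USP7 (aa208–560, C315A) preincubated 60 min at 30 °C with compound in 100 mM Bicine pH 8.0, 0.01% Triton X-100, 1 mM TCEP, 10% DMSO. Reaction started with 500 nM ubiquitin-rhodamine-110 and fluorescence (Ex485/Em535) read every 3 min for 21 min. IC50 derived from kinetic-rate reduction over an 11-point curve, 4-parameter fit.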

T1 sequence (Q93009 208-560 C315A): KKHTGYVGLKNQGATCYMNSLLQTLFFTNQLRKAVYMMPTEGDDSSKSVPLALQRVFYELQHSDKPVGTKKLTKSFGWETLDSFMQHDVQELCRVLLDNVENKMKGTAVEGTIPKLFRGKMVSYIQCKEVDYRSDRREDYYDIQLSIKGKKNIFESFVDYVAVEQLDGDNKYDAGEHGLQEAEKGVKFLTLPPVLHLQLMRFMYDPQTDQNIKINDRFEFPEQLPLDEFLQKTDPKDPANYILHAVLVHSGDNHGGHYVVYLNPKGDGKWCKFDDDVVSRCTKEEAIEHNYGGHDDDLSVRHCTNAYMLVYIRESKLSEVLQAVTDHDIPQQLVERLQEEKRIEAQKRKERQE

Row | SMILES | IC50 [2] | IC50 [1]
1 | Nc1c(Oc2ccc3c(c2)CCNC3)ncn(CC2(O)CCN(C(=O)[C@@H]3CCC(F)(F)C[C@H]3c3ccccc3)CC2)c1=O [Example 31, 5-amino-3-({1-[(1R,2R)-4,4-difluoro-2-phenylcyclohexane-1-carbonyl]-4-hydroxypiperidin-4-yl}methyl)-6-[(1,2,3,4-tetrahydroisoquinolin-6-yl)oxy]pyrimidin-4(3H)-one] | 0.047 µM | 0.648 µM
2 | Nc1c(Oc2ccc3c(c2)CNC3)ncn(CC2(O)CCN(C(=O)[C@@H]3CCC(F)(F)C[C@H]3c3ccccc3)CC2)c1=O [Example 32, 5-amino-3-({1-[(1R,2R)-4,4-difluoro-2-phenylcyclohexane-1-carbonyl]-4-hydroxypiperidin-4-yl}methyl)-6-[(2,3-dihydro-1H-isoindol-5-yl)oxy]pyrimidin-4(3H)-one] | 0.032 µM | 0.896 µM
3 | Nc1c(Oc2ccc(OCCO)cc2)ncn(CC2(O)CCN(C(=O)[C@@H]3CCC(F)(F)C[C@H]3c3ccccc3)CC2)c1=O [Example 33, 5-amino-3-({1-[(1R,2R)-4,4-difluoro-2-phenylcyclohexane-1-carbonyl]-4-hydroxypiperidin-4-yl}methyl)-6-[4-(2-hydroxyethoxy)phenoxy]pyrimidin-4(3H)-one] | 0.0459 µM | 0.0646 µM
4 | Nc1c(Oc2ccc(C3CCCN3)cc2)ncn(CC2(O)CCN(C(=O)[C@@H]3CCC(F)(F)C[C@H]3c3ccccc3)CC2)c1=O (stereo partly drawn) [Example 34, 5-amino-3({1-[(1R,2R)-4,4-difluoro-2-phenylcyclohexane-1-carbonyl]-4-hydroxypiperidin-4-yl}methyl)-6-[4-(pyrrolidin-2-yl)phenoxy]pyrimidin-4(3H)-one] | 0.0108 µM | 0.52 µM
5 | Nc1c(Oc2ccc3cn[nH]c3c2)ncn(CC2(O)CCN(C(=O)[C@@H]3CCC(F)(F)C[C@H]3c3ccccc3)CC2)c1=O [Example 35, 5-amino-3-({1-[(1R,2R)-4,4-difluoro-2-phenylcyclohexane-1-carbonyl]-4-hydroypiperidin-4-yl}methyl)-6-[(1H-indazol-6-yl)oxy]pyrimidin-4(3H)-one] | 0.0342 µM | 0.081 µM
6 | Nc1c(Oc2ccc(CCO)cc2)ncn(CC2(O)CCN(C(=O)[C@@H]3CCC(F)(F)C[C@H]3c3ccccc3)CC2)c1=O [Example 36, 5-amino-3-({1-[(1R,2R)-4,4-difluoro-2-phenylcyclohexane-1-carbonyl]-4-hydroxypiperidin-4-}methyl)-6-[4-(2-hydroxyethyl)phenoxy]pyrimdin-4(3H)-one] | 0.029 µM | 0.035 µM

The next lines start with results.

Row | IC50 [2] | SMILES | IC50 [1]
7 | 0.0639 µM | Nc1c(Oc2ccc(CC(F)F)cc2)ncn(CC2(O)CCN(C(=O)[C@@H]3CCC(F)(F)C[C@H]3c3ccccc3)CC2)c1=O [Example 38, 5-amino-6-[4-(2,2-difluoroethyl)phenoxy]-3-({1-[(1R,2R)-4,4-difluoro-2-phenylcyclohexane-1-carbonyl]-4-hydroxypiperidin-4-yl}methyl)pyrimidin-4(3H)-one] | 0.128 µM
8 | 0.042 µM | Nc1c(Oc2ccc(F)c(O)c2)ncn(CC2(O)CCN(C(=O)[C@@H]3CCC(F)(F)C[C@H]3c3ccccc3)CC2)c1=O [Example 41, 5-amino-3-({1-[(1R,2R)-4,4-difluoro-2-phenylcyclohexane-1-carbonyl]-4-hydroxypiperidin-4-yl}methyl)-6-(4-fluoro-3-hydroxyphenoxy)pyrimidin-4(3H)-one] | 0.0096 µM
9 | 0.0897 µM | CCc1cc(Oc2ncn(CC3(O)CCN(C(=O)[C@@H]4CCC(F)(F)C[C@H]4c4ccccc4)CC3)c(=O)c2N)ccc1Cl [Example 42, 5-amino-6-(4-chloro-3-ethylphenoxy)-3-({1-[(1R,2R)-4,4-difluoro-2-phenylcyclohexane-1-carbonyl]-4-hydroxypiperidin-4-yl}methyl)pyrimidin-4(3H)-one] | 0.169 µM
10 | 0.0387 µM | Nc1c(Oc2ccc(C=O)cc2)ncn(CC2(O)CCN(C(=O)[C@@H]3CCC(F)(F)C[C@H]3c3ccccc3)CC2)c1=O [Example 44] | 0.0736 µM
